This note sets out measurements from PubChem BioAssay AID248 (DTP/NCI, 2004).

Where “and” joins values, the source holds several entries; their conditions need not be identical. Equal values may be shown once. Inconclusive results and toxic doses are left out.

The test deals with L1210 leukemia ip in BDF1 mice, survival T/C. The test is described as follows: NCI In Vivo Anticancer Drug Screen. Data for tumor model L1210 Leukemia (intraperitoneal) in B6D2F1 (BDF1) mice. Conditions: endpoint: mean survival time, higher = longer survival. A digest of the protocol: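 In this screen, tumor-bearing mice given compound are compared to those given vehicle, and their survival values are reported as a treated-to-control quotient.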

[1] abbreviates: dose: 100.0 mg/kg/injection, schedule: Q01DX001 (ip), vehicle: carboxymethylcellulose (CMC).
Where [2] appears, read: dose: 200.0 mg/kg/injection, schedule: Q01DX001 (ip), vehicle: carboxymethylcellulose (CMC).
The mark [3] stands for this setting: dose: 400.0 mg/kg/injection, schedule: Q01DX001 (ip), vehicle: carboxymethylcellulose (CMC).
Setting [4] is: dose: 100.0 mg/kg/injection, schedule: Q04DX002 (ip), vehicle: saline with Tween-80.
Setting [5] is: dose: 200.0 mg/kg/injection, schedule: Q04DX002 (ip), vehicle: saline with Tween-80.
The mark [6] stands for this setting: dose: 400.0 mg/kg/injection, schedule: Q04DX002 (ip), vehicle: saline with Tween-80.
The mark [7] stands for this setting: dose: 100.0 mg/kg/injection, schedule: Q04DX003 (ip), vehicle: saline with Tween-80.
Where [8] appears, read: dose: 200.0 mg/kg/injection, schedule: Q04DX003 (ip), vehicle: saline with Tween-80.
[9] abbreviates: dose: 400.0 mg/kg/injection, schedule: Q04DX003 (ip), vehicle: saline with Tween-80.
Setting [10] is: dose: 400.0 mg/kg/injection, schedule: Q01DX009 (ip), vehicle: saline.
The mark [11] stands for this setting: dose: 50.0 mg/kg/injection, schedule: Q01DX001 (ip), vehicle: saline.
[12] abbreviates: dose: 100.0 mg/kg/injection, schedule: Q01DX001 (ip), vehicle: saline.
[13] abbreviates: dose: 200.0 mg/kg/injection, schedule: Q01DX001 (ip), vehicle: saline.
Where [14] appears, read: dose: 400.0 mg/kg/injection, schedule: Q01DX001 (ip), vehicle: saline.
[15] abbreviates: dose: 100.0 mg/kg/injection, schedule: Q01DX009 (ip), vehicle: saline with Tween-80.
The mark [16] stands for this setting: dose: 200.0 mg/kg/injection, schedule: Q01DX009 (ip), vehicle: saline with Tween-80.
The mark [17] stands for this setting: dose: 100.0 mg/kg/injection, schedule: Q04DX002 (ip), vehicle: Klucel (hydroxypropylcellulose) (HPC).

`NS(N)(=O)=O`: the T/C (dose: 50.0 mg/kg/injection, schedule: Q01DX001 (ip), vehicle: carboxymethylcellulose (CMC)) was 88 % of control; the T/C under setting [1] was 95 % of control; the T/C under setting [2] is 98 % of control; the T/C under setting [3] was 98 % of control.
For the compound `Cc1cc(-c2ccc([N+](=O)[O-])cc2)cn1-c1ccccc1`, the T/C (dose: 50.0 mg/kg/injection, schedule: Q04DX002 (ip), vehicle: saline with Tween-80) was 97 % of control; the T/C under setting [4] was 97 % of control and 89 % of control; the T/C under setting [5] was 87 % of control; the T/C under setting [6] was 96 % of control.
On to `O=C(CCCCCl)Nc1cccc2c1C(=O)c1c(c(O)c3ccccc3c1O)C2=O`, for which the T/C runs as follows: under setting [7], 98 % of control; under setting [8], 90 % of control; under setting [9], 90 % of control.
Regarding `O=C1CCC(=O)N1CCC(=O)N(C(=O)NC1CCCCC1)C1CCCCC1`, the T/C (dose: 50.0 mg/kg/injection, schedule: Q01DX009 (ip), vehicle: saline) is 98 % of control; the T/C (dose: 100.0 mg/kg/injection, schedule: Q01DX009 (ip), vehicle: saline) was 95 % of control; the T/C under setting [7] was 100 % of control; the T/C (dose: 200.0 mg/kg/injection, schedule: Q01DX009 (ip), vehicle: saline) was 101 % of control; the T/C under setting [8] is 106 % of control; the T/C under setting [10] is 98 % of control. The T/C under setting [9] is 100 % of control.
As for `CN(C)C(=O)Nc1cccc(OC(=O)NC2CCCCC2)c1`, the T/C runs as follows: (dose: 100.0 mg/kg/injection, schedule: Q01DX001 (ip), vehicle: saline with Tween-80) 97 % of control; (dose: 200.0 mg/kg/injection, schedule: Q01DX001 (ip), vehicle: saline with Tween-80) 92 % of control; (dose: 400.0 mg/kg/injection, schedule: Q01DX001 (ip), vehicle: saline with Tween-80) 87 % of control.
Take `CC(C)(C#N)CCCCCC(C)(C)C#N`: the T/C is 100 % of control under setting [11], 96 % of control under setting [12], 100 % of control under setting [13] and 97 % of control under setting [14].
For `O=C1CN=C(c2ccccn2)c2cc(Cl)ccc2N1`, the T/C by setting is: (dose: 50.0 mg/kg/injection, schedule: Q01DX009 (ip), vehicle: water) 98 % of control; (dose: 100.0 mg/kg/injection, schedule: Q01DX009 (ip), vehicle: water) 97 % of control; (dose: 200.0 mg/kg/injection, schedule: Q01DX009 (ip), vehicle: water) 104 % of control; (dose: 200.0 mg/kg/injection, schedule: Q04DX003 (ip), vehicle: none) 99 % of control; (dose: 200.0 mg/kg/injection, schedule: Q04DX003 (ip), vehicle: water) 100 % of control; (dose: 267.0 mg/kg/injection, schedule: Q01DX009 (ip), vehicle: saline) 97 % of control. Besides, the T/C under setting [10] was 110 % of control; the T/C (dose: 400.0 mg/kg/injection, schedule: Q01DX009 (ip), vehicle: water) is 198 % of control; the T/C (dose: 400.0 mg/kg/injection, schedule: Q04DX003 (ip), vehicle: none) was 101 % of control; the T/C (dose: 400.0 mg/kg/injection, schedule: Q04DX003 (ip), vehicle: water) is 102 % of control; the T/C (dose: 600.0 mg/kg/injection, schedule: Q04DX003 (ip), vehicle: none) is 101 % of control; the T/C (dose: 600.0 mg/kg/injection, schedule: Q04DX003 (ip), vehicle: water) was 102 % of control.
Regarding `Cc1c(I)sc(I)c1I`, the T/C under setting [1] was 94 % of control, the T/C under setting [2] was 94 % of control and the T/C under setting [3] was 100 % of control.
As to `Cc1[nH]ccc2c(C)c3nc4ccccc4c3cc12`, the T/C is 110 % of control (dose: 2.5 mg/kg/injection, schedule: Q01DX Z (ip), vehicle: carboxymethylcellulose (CMC)); 114 % of control (dose: 5.0 mg/kg/injection, schedule: Q01DX Z (ip), vehicle: carboxymethylcellulose (CMC)); 122 % of control (dose: 29.0 mg/kg/injection, schedule: Q04DX003 (ip), vehicle: saline with Tween-80); 151 % of control (dose: 40.0 mg/kg/injection, schedule: Q01DX Z (ip), vehicle: saline); 98 % of control under setting [11]; 110 % of control (dose: 75.0 mg/kg/injection, schedule: Q01DX Z (ip), vehicle: saline). Moreover, the T/C under setting [12] was 112 % of control; the T/C (dose: 100.0 mg/kg/injection, schedule: Q01DX Z (ip), vehicle: saline) is 92 % of control; the T/C under setting [7] is 165 % of control; the T/C (dose: 150.0 mg/kg/injection, schedule: Q04DX003 (ip), vehicle: saline with Tween-80) is 153 % of control; the T/C under setting [13] is 110 % of control; the T/C under setting [14] is 122 % of control.
As for `CC(=O)NCCCOc1ccc(N)cc1`, the T/C under setting [12] is 96 % of control, the T/C under setting [13] is 102 % of control and the T/C under setting [14] was 105 % of control.
For `Cc1cc(C)c(NC2=NCCS2)cc1C`, under setting [4], the T/C was 100 % of control.
Take `CCCCCCCCC(C(=O)c1ccccc1)C(O)(C(F)(F)F)C(F)(F)F` (configuration not stated): the T/C was 100 % of control under setting [15] and 106 % of control under setting [16].
For the compound `O=C(O)c1cc(=O)[nH]c(=O)[nH]1`, the T/C under setting [17] is 100 % of control.
`c1cc2c(cc1CCCCCCCCCCc1ccc3c(c1)CCC3)CCC2`: the T/C by setting is: under setting [12], 97 % of control; under setting [13], 97 % of control; under setting [14], 89 % of control.
For the compound `CCN(CC)c1cccc(N)c1`, the T/C was 100 % of control (dose: 25.0 mg/kg/injection, schedule: Q01DX009 (sc), vehicle: olive oil, sesame oil, peanut oil); 104 % of control (dose: 50.0 mg/kg/injection, schedule: Q01DX009 (sc), vehicle: olive oil, sesame oil, peanut oil); 114 % of control (dose: 100.0 mg/kg/injection, schedule: Q01DX009 (sc), vehicle: olive oil, sesame oil, peanut oil); 110 % of control (dose: 100.0 mg/kg/injection, schedule: Q04DX003 (sc), vehicle: olive oil, sesame oil, peanut oil).
As to `Cc1ccc(S(=O)(=O)OCCc2ccccc2)cc1`, the T/C runs as follows: under setting [15], 100 % of control; under setting [7], 102 % of control; under setting [16], 100 % of control; under setting [8], 102 % of control; (dose: 400.0 mg/kg/injection, schedule: Q01DX009 (ip), vehicle: saline with Tween-80) 96 % of control; under setting [9], 100 % of control.
Regarding `COc1ccc(OC)c(NC(=O)Nc2ccc(I)cc2)c1`, the T/C was 96 % of control under setting [17]; 96 % of control (dose: 200.0 mg/kg/injection, schedule: Q04DX002 (ip), vehicle: Klucel (hydroxypropylcellulose) (HPC)); 107 % of control (dose: 400.0 mg/kg/injection, schedule: Q04DX002 (ip), vehicle: Klucel (hydroxypropylcellulose) (HPC)).
Take `CCOC1(OCC)CC2(Cl)C(Cl)=C(Cl)C(Cl)(C3C1CC3(OCC)OCC)C2(OC)OC` (configuration not stated): the T/C was 103 % of control (dose: 75.0 mg/kg/injection, schedule: Q01DX009 (ip), vehicle: Klucel (hydroxypropylcellulose) (HPC)); 95 % of control (dose: 100.0 mg/kg/injection, schedule: Q01DX001 (ip), vehicle: Klucel (hydroxypropylcellulose) (HPC)); 107 % of control (dose: 150.0 mg/kg/injection, schedule: Q01DX009 (ip), vehicle: Klucel (hydroxypropylcellulose) (HPC)); 103 % of control (dose: 200.0 mg/kg/injection, schedule: Q01DX001 (ip), vehicle: Klucel (hydroxypropylcellulose) (HPC)); 100 % of control (dose: 300.0 mg/kg/injection, schedule: Q01DX009 (ip), vehicle: Klucel (hydroxypropylcellulose) (HPC)); 97 % of control (dose: 400.0 mg/kg/injection, schedule: Q01DX001 (ip), vehicle: Klucel (hydroxypropylcellulose) (HPC)).
Turning to `CC(C)(C)N(Cl)C#N`, the T/C reads like this: under setting [4], 93 % of control; under setting [5], 97 % of control; under setting [6], 97 % of control.
For `C/C=C/C[n+]1c(C)ccc2ccccc21`, the T/C was 98 % of control (dose: 12.5 mg/kg/injection, schedule: Q01DX001 (ip), vehicle: saline); 96 % of control (dose: 25.0 mg/kg/injection, schedule: Q01DX001 (ip), vehicle: saline); 93 % of control under setting [11].
